In ChEMBL document CHEMBL5365481, “Design, Synthesis, and Activity Evaluation of Novel Dual-Target Inhibitors with Antifungal and Immunoregulatory Properties” (J Med Chem, 2023):
Converted amounts (≈) assume the structure as drawn. The source made the active and inactive calls. The rule behind the calls is not given here.

What follows are compounds tested on Pichia kudriavzevii (assay: Antifungal activity against Candida krusei ATCC 6258 assessed as inhibition of fungal growth incubated for 72 hrs by CLSI based liquid medium microdilution method). Conditions: not given.
Format: functional
`CC(=O)c1ccc(C(=O)N2CCC(NC(=O)c3nc(-n4ccnc4)c4ccccc4n3)CC2)cc1` showed an MIC50 of 1 µg/mL (≈ 2.13 µM). `CC(=O)c1ccc(NC(=O)c2nc(-n3ccnc3)c3ccccc3n2)cc1` was tested, and the MIC50 was 1 µg/mL (≈ 2.8 µM). `CS(=O)(=O)c1ccc(NC(=O)c2nc(-n3cncn3)c3ccccc3n2)cc1` showed an MIC50 of 2 µg/mL (≈ 5.07 µM).

Each compound was assayed against Programmed cell death 1 ligand 1 (Homo sapiens, UniProt Q9NZQ7) (assay: Binding affinity to PD-L1 (unknown origin) assessed as dissociation constant by SPR analysis). Conditions: not given.
Chain of Programmed cell death 1 ligand 1 (Q9NZQ7 whole entry): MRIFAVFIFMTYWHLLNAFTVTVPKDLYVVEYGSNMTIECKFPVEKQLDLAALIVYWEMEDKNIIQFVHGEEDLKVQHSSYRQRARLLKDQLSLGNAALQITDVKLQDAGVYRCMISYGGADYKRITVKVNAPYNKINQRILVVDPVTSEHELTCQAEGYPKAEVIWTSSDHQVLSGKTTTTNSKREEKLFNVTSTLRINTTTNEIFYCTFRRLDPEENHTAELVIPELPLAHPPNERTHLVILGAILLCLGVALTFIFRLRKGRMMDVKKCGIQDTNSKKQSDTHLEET
`CC(=O)c1ccc(NC(=O)c2nc(-n3ccnc3)c3ccccc3n2)cc1` gave a Kd of 34.5 nM.

The compounds below were run against T1, Lanosterol 14-alpha demethylase (Candida albicans (strain SC5314 / ATCC MYA-2876) (Yeast), UniProt P10613) (assay: Inhibition of Candida albicans ATCC SC5314 CYP51 assessed as lanosterol content at 4 ug/ml measured after 16 hrs by GC-MS analysis relative to control). Conditions: at 4 µg/mL.
T1 sequence (P10613 whole entry): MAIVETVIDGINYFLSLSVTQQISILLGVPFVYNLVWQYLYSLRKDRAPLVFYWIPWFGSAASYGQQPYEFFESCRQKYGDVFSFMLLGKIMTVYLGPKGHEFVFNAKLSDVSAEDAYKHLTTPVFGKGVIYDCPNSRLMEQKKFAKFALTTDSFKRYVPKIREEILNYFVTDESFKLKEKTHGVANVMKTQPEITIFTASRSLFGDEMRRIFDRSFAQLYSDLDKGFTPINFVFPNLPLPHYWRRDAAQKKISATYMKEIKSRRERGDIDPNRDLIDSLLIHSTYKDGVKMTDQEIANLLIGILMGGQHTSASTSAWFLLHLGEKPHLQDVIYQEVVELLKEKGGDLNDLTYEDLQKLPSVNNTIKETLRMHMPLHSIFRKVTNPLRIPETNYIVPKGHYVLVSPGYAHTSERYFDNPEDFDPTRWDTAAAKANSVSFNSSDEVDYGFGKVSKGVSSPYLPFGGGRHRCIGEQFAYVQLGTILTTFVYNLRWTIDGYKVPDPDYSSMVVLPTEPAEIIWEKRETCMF
Design: scale not given: the % may be the effect or the level left
In the case of `CC(=O)c1ccc(NC(=O)c2nc(-n3ccnc3)c3ccccc3n2)cc1`, the Activity is reported as 20.64%.

Each compound was assayed against T1, Lanosterol 14-alpha demethylase (assay: Inhibition of Candida albicans ATCC SC5314 CYP51 assessed as other unknown sterol content at 4 ug/ml measured after 16 hrs by GC-MS analysis (Rvb= 3.82%)). Conditions: at 4 µg/mL.
Design: scale not given: the % may be the effect or the level left
`CC(=O)c1ccc(NC(=O)c2nc(-n3ccnc3)c3ccccc3n2)cc1` showed an Activity of 6.14%.

These compounds were tested on Candida albicans (assay: Antifungal activity against fluconazole-resistant Candida albicans 17# assessed as inhibition of fungal growth incubated for 72 hrs by CLSI based liquid medium microdilution method). Conditions: not given.
Format: functional
`CC(=O)c1ccc(NC(=O)c2nc(-n3ccnc3)c3ccccc3n2)cc1` was tested, and the MIC50 was 2 µg/mL (≈ 5.6 µM).

What follows are compounds tested on Candida albicans (assay: Induction of apoptosis in Candida albicans ATCC SC5314 assessed as late apoptotic cells at 1 microM/ml incubated for 48 hrs by Hoechst 33258/PI staining based flow cytometry (Rvb= 0.05 +/- 0.01%)). Conditions: not given.
Format: functional
`CC(=O)c1ccc(NC(=O)c2nc(-n3ccnc3)c3ccccc3n2)cc1` showed an Activity of 0.13%.

These compounds were tested on Candida albicans (assay: Antifungal activity against Candida albicans ATCC SC5314 assessed as decrease in fungal cell density at 1 microM/ml incubated for 48 hrs by absorbance based assay). Conditions: not given.
Format: functional, organism-based
For `CC(=O)c1ccc(NC(=O)c2nc(-n3ccnc3)c3ccccc3n2)cc1`, the Activity was “Active”.

What follows are compounds tested against T1, Lanosterol 14-alpha demethylase (assay: Inhibition of Candida albicans ATCC SC5314 CYP51 assessed as eburicol content at 4 ug/ml measured after 16 hrs by GC-MS analysis (Rvb= 3.47%)). Conditions: at 4 µg/mL.
Design: scale not given: the % may be the effect or the level left
`CC(=O)c1ccc(NC(=O)c2nc(-n3ccnc3)c3ccccc3n2)cc1` was tested, and the Activity was 41.69%.

The compounds below were run against Programmed cell death protein 1/Programmed cell death 1 ligand 1 (Homo sapiens, UniProt Q9NZQ7) (assay: Inhibition of PD-1/PD-L1 interaction (unknown origin) incubated for 15 mins by ELISA). Conditions: not given.
Chain of Programmed cell death protein 1/Programmed cell death 1 ligand 1 (Q15116 whole entry): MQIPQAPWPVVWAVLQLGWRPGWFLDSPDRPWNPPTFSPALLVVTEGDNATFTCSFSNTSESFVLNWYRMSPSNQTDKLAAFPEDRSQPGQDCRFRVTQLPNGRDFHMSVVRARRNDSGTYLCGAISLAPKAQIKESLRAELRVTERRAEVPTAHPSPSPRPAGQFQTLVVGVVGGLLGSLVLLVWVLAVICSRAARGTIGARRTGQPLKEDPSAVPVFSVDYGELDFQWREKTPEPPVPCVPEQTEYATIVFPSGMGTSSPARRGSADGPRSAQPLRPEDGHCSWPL
Chain of Programmed cell death protein 1/Programmed cell death 1 ligand 1 (Q9NZQ7 whole entry): as the sequence (Q9NZQ7 whole entry) above
Format: protein-complex assay
With `CC(=O)c1ccc(NC(=O)c2nc(-n3ccnc3)c3ccccc3n2)cc1` the IC50 was 83 nM.

The compounds below were run on Candida albicans (assay: Induction of apoptosis in Candida albicans ATCC SC5314 assessed as necrotic cells at 1 microM/ml incubated for 48 hrs by Hoechst 33258/PI staining based flow cytometry (Rvb= 0.03 +/- 0.01%)). Conditions: not given.
Format: functional
Compound `CC(=O)c1ccc(NC(=O)c2nc(-n3ccnc3)c3ccccc3n2)cc1` has an Activity of 0.03%.

The compounds below were run on Candida albicans (assay: In vivo antifungal activity against Candida albicans ATCC SC5314 infected in BALB/c mouse assessed as decrease in PD-L1 expression level at 10 ug, ip for 14 days by Western blot analysis). Conditions: dose 10.0 µg, time 14.0 day.
Format: functional, organism-based
With `CC(=O)c1ccc(NC(=O)c2nc(-n3ccnc3)c3ccccc3n2)cc1` the Activity was “Active”.

Each compound was assayed on Candida albicans (assay: Induction of ROS generation in Candida albicans ATCC SC5314 assessed as increase in fluorescence intensity at 1 microM/ml incubated for 48 hrs by fluorescent microscopy). Conditions: not given.
Format: functional, organism-based
`CC(=O)c1ccc(NC(=O)c2nc(-n3ccnc3)c3ccccc3n2)cc1` was tested, and the Activity was “Active”.

These compounds were tested against T1, Lanosterol 14-alpha demethylase (assay: Inhibition of Candida albicans ATCC SC5314 CYP51 assessed as ergosterol content at 4 ug/ml measured after 16 hrs by GC-MS analysis (reference value: 92.71%)). Conditions: at 4 µg/mL.
Design: scale not given: the % may be the effect or the level left
`CC(=O)c1ccc(NC(=O)c2nc(-n3ccnc3)c3ccccc3n2)cc1` gave an Activity of 21.53%.

The compounds below were run on Candida albicans (assay: Antifungal activity against fluconazole-resistant Candida albicans CaR assessed as inhibition of fungal growth incubated for 72 hrs by CLSI based liquid medium microdilution method). Conditions: not given.
Format: functional
`CC(=O)c1ccc(NC(=O)c2nc(-n3ccnc3)c3ccccc3n2)cc1` gave an MIC50 of 4 µg/mL (≈ 11.2 µM).

Each compound was assayed on Candida albicans (assay: Induction of mitochondrial membrane depolarization in Candida albicans ATCC SC5314 assessed as normal cells at 1 microM/ml incubated for 24 hrs by JC-1 staining based flow cytometry assay (reference value: 94.4 +/- 1.15%)). Conditions: not given.
Format: functional
Work on `CC(=O)c1ccc(NC(=O)c2nc(-n3ccnc3)c3ccccc3n2)cc1` yielded an Activity of 77.1%.

The compounds below were run on Candida albicans (assay: Antifungal activity against fluconazole-resistant Candida albicans 632 assessed as inhibition of fungal growth incubated for 72 hrs by CLSI based liquid medium microdilution method). Conditions: not given.
Format: functional
In the case of `CC(=O)c1ccc(NC(=O)c2nc(-n3ccnc3)c3ccccc3n2)cc1`, the MIC50 is reported as 2 µg/mL (≈ 5.6 µM).

These compounds were tested on Candida albicans (assay: Induction of mitochondrial membrane depolarization in Candida albicans ATCC SC5314 assessed as polarized cells at 1 microM/ml incubated for 24 hrs by JC-1 staining based flow cytometry assay (reference value: 0.28 +/- 0.02%)). Conditions: not given.
Format: functional
For `CC(=O)c1ccc(NC(=O)c2nc(-n3ccnc3)c3ccccc3n2)cc1`, the Activity was 0.07%.

The compounds below were run on Candida albicans (assay: In vivo antifungal activity against Candida albicans ATCC SC5314 infected in BALB/c mouse assessed as decrease in NLRP3 expression level at 10 ug, ip for 14 days by Western blot analysis). Conditions: dose 10.0 µg, time 14.0 day.
Format: functional, organism-based
With `CC(=O)c1ccc(NC(=O)c2nc(-n3ccnc3)c3ccccc3n2)cc1` the Activity was “Active”.

The compounds below were run against T1, Lanosterol 14-alpha demethylase (assay: Inhibition of Candida albicans ATCC SC5314 CYP51 using lanosterol as substrate incubated for 30 mins by HPLC assay). Conditions: not given.
`CC(=O)c1ccc(NC(=O)c2nc(-n3ccnc3)c3ccccc3n2)cc1` gave an IC50 of 884 nM.

What follows are compounds tested on Candida albicans (assay: Induction of apoptosis in Candida albicans ATCC SC5314 assessed as early apoptotic cells at 1 microM/ml incubated for 48 hrs by Hoechst 33258/PI staining based flow cytometry (Rvb= 5.1 +/- 0.3%)). Conditions: not given.
Format: functional
`CC(=O)c1ccc(NC(=O)c2nc(-n3ccnc3)c3ccccc3n2)cc1` gave an Activity of 44.8%.

These compounds were tested on Candida albicans (assay: Induction of apoptosis in Candida albicans ATCC SC5314 assessed as normal cells at 1 microM/ml incubated for 48 hrs by Hoechst 33258/PI staining based flow cytometry (Rvb= 94.8 +/- 0.3%)). Conditions: not given.
Format: functional
`CC(=O)c1ccc(NC(=O)c2nc(-n3ccnc3)c3ccccc3n2)cc1` was tested, and the Activity was 55.1%.

Each compound was assayed on Candida albicans (assay: Antifungal activity against Candida albicans ATCC SC5314 assessed as change in osmotic pressure at 1 microM/ml incubated for 48 hrs by absorbance based assay). Conditions: not given.
Format: functional, organism-based
In the case of `CC(=O)c1ccc(NC(=O)c2nc(-n3ccnc3)c3ccccc3n2)cc1`, the Activity is reported as “Active”.

What follows are compounds tested on Aspergillus fumigatus (assay: Antifungal activity against Aspergillus fumigatus KM8001 assessed as inhibition of fungal growth incubated for 72 hrs by CLSI based liquid medium microdilution method). Conditions: not given.
Format: functional
With `CC(=O)c1ccc(C(=O)N2CCC(NC(=O)c3nc(-n4ccnc4)c4ccccc4n3)CC2)cc1` the MIC50 was 4 µg/mL (≈ 8.54 µM). Compound `CC(=O)c1ccc(NC(=O)c2nc(-n3ccnc3)c3ccccc3n2)cc1` has an MIC50 of 2 µg/mL (≈ 5.6 µM). In the case of `CS(=O)(=O)c1ccc(NC(=O)c2nc(-n3cncn3)c3ccccc3n2)cc1`, the MIC50 is reported as 4 µg/mL (≈ 10.1 µM).

These compounds were tested on Candida tropicalis (assay: Antifungal activity against Candida tropicalis ATCC 1369 assessed as inhibition of fungal growth incubated for 72 hrs by CLSI based liquid medium microdilution method). Conditions: not given.
Format: functional
Compound `CC(=O)c1ccc(C(=O)N2CCC(NC(=O)c3nc(-n4ccnc4)c4ccccc4n3)CC2)cc1` has an MIC50 of 0.5 µg/mL (≈ 1.07 µM). Work on `CC(=O)c1ccc(NC(=O)c2nc(-n3ccnc3)c3ccccc3n2)cc1` yielded an MIC50 of 1 µg/mL (≈ 2.8 µM). Work on `CS(=O)(=O)c1ccc(NC(=O)c2nc(-n3cncn3)c3ccccc3n2)cc1` yielded an MIC50 of 2 µg/mL (≈ 5.07 µM).

What follows are compounds tested on Candida albicans (assay: Antifungal activity against fluconazole-resistant Candida albicans 901 assessed as inhibition of fungal growth incubated for 72 hrs by CLSI based liquid medium microdilution method). Conditions: not given.
Format: functional
For `CC(=O)c1ccc(NC(=O)c2nc(-n3ccnc3)c3ccccc3n2)cc1`, the MIC50 was over 8 µg/mL.

What follows are compounds tested on Candida albicans (assay: Antifungal activity against fluconazole-resistant Candida albicans 904 assessed as inhibition of fungal growth incubated for 72 hrs by CLSI based liquid medium microdilution method). Conditions: not given.
Format: functional
`CC(=O)c1ccc(NC(=O)c2nc(-n3ccnc3)c3ccccc3n2)cc1` gave an MIC50 of 4 µg/mL (≈ 11.2 µM).

Each compound was assayed on Candida albicans (assay: Induction of apoptosis in Candida albicans ATCC SC5314 assessed as increase in blue fluorescence intensity at 1 microM/ml incubated for 48 hrs by Hoechst 33258/PI staining based fluorescence microscopy). Conditions: not given.
Format: functional, organism-based
In the case of `CC(=O)c1ccc(NC(=O)c2nc(-n3ccnc3)c3ccccc3n2)cc1`, the Activity is reported as “Active”.

The compounds below were run on Candida albicans (assay: Induction of mitochondrial membrane depolarization in Candida albicans ATCC SC5314 assessed as depolarized cells at 1 microM/ml incubated for 24 hrs by JC-1 staining based flow cytometry assay (reference value: 0.3 to 5.1%)). Conditions: not given.
Format: functional
With `CC(=O)c1ccc(NC(=O)c2nc(-n3ccnc3)c3ccccc3n2)cc1` the Activity was 0.16%.

These compounds were tested on Candida albicans (assay: Antifungal activity against Candida albicans ATCC SC5314 assessed as change in structural stability at 1 microM/ml incubated for 48 hrs by absorbance based assay). Conditions: not given.
Format: functional, organism-based
In the case of `CC(=O)c1ccc(NC(=O)c2nc(-n3ccnc3)c3ccccc3n2)cc1`, the Activity is reported as “Active”.

Each compound was assayed on Candida albicans (assay: Antifungal activity against Candida albicans ATCC SC5314 assessed as inhibition of fungal growth incubated for 72 hrs by CLSI based liquid medium microdilution method). Conditions: not given.
Format: functional
`CC(=O)c1ccc(C(=O)N2CCC(NC(=O)c3nc(-n4ccnc4)c4ccccc4n3)CC2)cc1` gave an MIC50 of 2 µg/mL (≈ 4.27 µM). In the case of `CC(=O)c1ccc(NC(=O)c2nc(-n3ccnc3)c3ccccc3n2)cc1`, the MIC50 is reported as 0.5 µg/mL (≈ 1.4 µM). `CS(=O)(=O)c1ccc(NC(=O)c2nc(-n3cncn3)c3ccccc3n2)cc1` gave an MIC50 of 1 µg/mL (≈ 2.54 µM).

The compounds below were run on Candida albicans (assay: In vivo antifungal activity against Candida albicans ATCC SC5314 infected in BALB/c mouse assessed as decrease in IFN-gamma expression level at 10 ug, ip for 14 days by Western blot analysis). Conditions: dose 10.0 µg, time 14.0 day.
Format: functional, organism-based
`CC(=O)c1ccc(NC(=O)c2nc(-n3ccnc3)c3ccccc3n2)cc1` was tested, and the Activity was “Active”.

These compounds were tested on Candida albicans (assay: In vivo antifungal activity against Candida albicans ATCC SC5314 infected in BALB/c mouse assessed as decrease in COX2 expression level at 10 ug, ip for 14 days by Western blot analysis). Conditions: dose 10.0 µg, time 14.0 day.
Format: functional, organism-based
With `CC(=O)c1ccc(NC(=O)c2nc(-n3ccnc3)c3ccccc3n2)cc1` the Activity was “Active”.

These compounds were tested on Cryptococcus neoformans (assay: Antifungal activity against Cryptococcus neoformans ZKCC 2209 assessed as inhibition of fungal growth incubated for 72 hrs by CLSI based liquid medium microdilution method). Conditions: not given.
Format: functional
`CC(=O)c1ccc(C(=O)N2CCC(NC(=O)c3nc(-n4ccnc4)c4ccccc4n3)CC2)cc1` showed an MIC50 of 2 µg/mL (≈ 4.27 µM). With `CC(=O)c1ccc(NC(=O)c2nc(-n3ccnc3)c3ccccc3n2)cc1` the MIC50 was 1 µg/mL (≈ 2.8 µM). In the case of `CS(=O)(=O)c1ccc(NC(=O)c2nc(-n3cncn3)c3ccccc3n2)cc1`, the MIC50 is reported as 2 µg/mL (≈ 5.07 µM).
